{"source": "patent US6759403B2", "about": "“Metalloporphyrins and their uses as radiosensitizers for radiation therapy” (Brookhaven Science Associates, LLC, priority 2001, dated 2004)", "key": {"malignant brain tumors": {"system": "malignant brain tumors", "conditions": "clinical use of BPA; cited from earlier work"}, "EMT-6 mammary carcinomas [1]": {"system": "EMT-6 mammary carcinomas", "experiment": "CuTCPH boron biodistribution in EMT-6 tumor-bearing mice (prior results, Rad. Res. 155, 603-610, 2001)", "assay_type": "in vivo, BALB/c mice", "procedure": "There is a larger vascular system surrounding the dorsal thorax compared with the leg, which may be a factor. However, in the case of CuTCPH, the boron concentration was 30% higher in leg tumors compared to back tumors. Normalizing to the slightly higher dose of the first study, the tumor boron concentration should be about 29 and 15 μg/g at 2d and 5d, respectively, which are still low. Studies are underway to repeat these experiments.\nThe biodistribution properties for CuTCPBr are similar to other lipophilic tetracarboranyl tetraphenylporphyrins studied previously, particularly the results for CuTCPH which were reported in Rad. Res. 155, 603-610, 2001 and are listed in columns four and five of Table 4. The CuTCPH results were based on two groups of seven (7) BALB/c mice which were given 180 μg/gbw CuTCPH in six intraperitoneal injections over 2 days. The first group of mice was euthanized two days after the last injection and the second group four days after the last injection. The boron concentrations in different tissues were then measured."}, "[2]": {"system": "subcutaneous 9L gliosarcomas", "experiment": "Boron biodistribution after intravenous infusion in rat 9L gliosarcoma model (Examples 6 and 7)", "assay_type": "in vivo, Fischer 344 rats", "procedure": "This example used the experimental rat 9L gliosarcoma model and the protocol used to administer porphyrins by intravenous infusion that were reported in J. NeuroOncol, 52, 111-117, 2001. Six (6) male Fischer 344 rats bearing subcutaneous 9L gliosarcomas were infused intravenously with CuTCPBr at a total dose of 220 μg/gbw over 48 hours. Tumor and blood were sampled from each at zero, one, two and three days after the end of infusion and the boron concentrations measured. In this example, the biodistribution of CuTCPBr was compared to CuTCPH. A group of six (6) male Fischer 344 rats bearing subcutaneous 9L gliosarcomas were infused intravenously with CuTCPBr at a total dose of 220 μg/gbw over 48 hours. A second group of four (4) male Fischer 344 rats bearing subcutaneous 9L gliosarcomas were infused intravenously with CuTCPH at a total dose of 195 μg/gbw. over 48 hours. Boron concentrations in tissues from both groups of rats were taken three days after the end of infusion. The results for the CuTCPBr group of rats are listed in column 2 of Table 6 and the results for the CuTCPH group of rats are listed in column 4 of Table 6. To account for the difference in porphyrin dose (195 μg/gbw for CuTCPH versus 220 μg/gbw for CuTCPBr) and the difference in % boron in each porphyrin (31.8% for CuTCPH versus 21.7 for CuTCPBr), the boron concentrations in tissues from rats given CuTCPBr were normalized so that they would be equivalent to the boron concentrations of rats given CuTCPH. This was done by multiplying the boron concentrations in the CuTCPBr group of rats by the CuTCPBr to CuTCPH boron dose ratio of 1.3. The normalized boron concentrations for the CuTCPBr group of rats are listed in column 3 of Table 6."}, "[3]": {"system": "subcutaneous 9L gliosarcomas", "experiment": "CuTCPH dose increase and tumor boron concentration in rats with 9L gliosarcomas", "assay_type": "in vivo, Fischer 344 rats", "source_text": "Toxicity is the critical factor, and since no toxicity was observed, the dose can be increased to achieve tumor boron concentrations higher than those in Examples 2 and 3."}, "EMT-6 mammary carcinomas [4]": {"system": "EMT-6 mammary carcinomas", "conditions": "180 μg/gbw CuTCPH, 6 ip injections over 2 days, cited from earlier work"}, "[5]": {"conditions": "195 μg/gbw CuTCPH (61.8 μg B/gbw) iv over 48 hours, 3 days after end of infusion"}}, "note": "Like-named read-outs stand apart in the source and are kept apart here.", "data": [{"molecule": "N[C@@H](Cc1ccc(B(O)O)cc1)C(=O)O", "note": "[BPA, p-boronophenylalanine]", "values": [{"measurement": "blood boron concentration relative to that found in tumor", "setting": "malignant brain tumors", "value": "approximately one-third"}, {"measurement": "brain boron concentration relative to that found in tumor", "setting": "malignant brain tumors", "value": "approximately one-third"}, {"measurement": "chemical toxicity associated with usage", "setting": "malignant brain tumors", "value": "not eliciting any chemical toxicity"}]}, {"molecule": "copper tetracarboranylmethoxyphenylporphyrin [CuTCPH]", "values": [{"measurement": "decrease of liver boron from two to four days", "setting": "EMT-6 mammary carcinomas [1]; 180 μg/gbw CuTCPH", "value": 5, "unit": "%"}, {"measurement": "boron concentration higher in leg tumors compared to back tumors", "setting": "EMT-6 mammary carcinomas [1]; CuTCPH, leg versus back tumors", "value": 30, "unit": "%"}, {"measurement": "Boron Concentration, Brain", "setting": "[2]; [5]", "value": "3.2 (1.4) μg/g"}, {"measurement": "Boron Concentration, Kidney", "setting": "[2]; [5]", "value": "16 (2) μg/g"}, {"measurement": "Boron Concentration, Lacrimal Gland", "setting": "[2]; [5]", "value": "45 (11) μg/g"}, {"measurement": "Boron Concentration, Liver", "setting": "[2]; [5]", "value": "638 (53) μg/g"}, {"measurement": "Boron Concentration, Lung", "setting": "[2]; [5]", "value": "83 (12) μg/g"}, {"measurement": "Boron Concentration, Lymph Nodes", "setting": "[2]; [5]", "value": "284 (68) μg/g"}, {"measurement": "Boron Concentration, Parotid Gland", "setting": "[2]; [5]", "value": "125 (26) μg/g"}, {"measurement": "Boron Concentration, Spleen", "setting": "[2]; [5]", "value": "832 (169) μg/g"}, {"measurement": "Boron Concentration, Tongue", "setting": "[2]; [5]", "value": "47 (11) μg/g"}, {"measurement": "Boron Concentration, Tumor", "setting": "[2]; [5]", "value": "63 (23) μg/g"}, {"measurement": "Boron concentration, Ears", "setting": "[2]; [5]", "value": "17 (3) μg/g"}, {"measurement": "Toxicity", "setting": "[2]; rats, 220 μg/gbw CuTCPBr or 195 μg/gbw CuTCPH iv over 48 hours", "value": "does not appear to be a major problem"}, {"measurement": "tumor boron concentration, median", "setting": "[3]; CuTCPH total dose 195 mg/kg body weight", "value": 64, "unit": "µg/g"}, {"measurement": "tumor boron concentration, median", "setting": "[3]; CuTCPH total dose 450 mg/kg body weight", "value": 117, "unit": "µg/g"}, {"measurement": "Boron Concentration, Blood", "setting": "EMT-6 mammary carcinomas [4]; after 2 days", "value": "0 (0) μg/g"}, {"measurement": "Boron Concentration, Brain", "setting": "EMT-6 mammary carcinomas [4]; after 2 days", "value": "0.2 (0.1) μg/g"}, {"measurement": "Boron Concentration, Ears (skin)", "setting": "EMT-6 mammary carcinomas [4]; after 2 days", "value": "8.4 (2.1) μg/g"}, {"measurement": "Boron Concentration, Liver", "setting": "EMT-6 mammary carcinomas [4]; after 2 days", "value": "562 (79) μg/g"}, {"measurement": "Boron Concentration, Tumor", "setting": "EMT-6 mammary carcinomas [4]; after 2 days", "value": "62 (10) μg/g"}, {"measurement": "Boron Concentration, Blood", "setting": "EMT-6 mammary carcinomas [4]; after 4 days", "value": "0.3 (0.1) μg/g"}, {"measurement": "Boron Concentration, Brain", "setting": "EMT-6 mammary carcinomas [4]; after 4 days", "value": "0.7 (0.3) μg/g"}, {"measurement": "Boron Concentration, Ears (skin)", "setting": "EMT-6 mammary carcinomas [4]; after 4 days", "value": "14 (2.6) μg/g"}, {"measurement": "Boron Concentration, Liver", "setting": "EMT-6 mammary carcinomas [4]; after 4 days", "value": "534 (124) μg/g"}, {"measurement": "Boron Concentration, Tumor", "setting": "EMT-6 mammary carcinomas [4]; after 4 days", "value": "71 (9) μg/g"}]}]}
